The results in this text go back to patent US12528792B2, “Sulfonamide compounds and the use thereof in the treatment of cancer” (TROBIO THERAPEUTICS PTY LTD, priority 2019, dated 2026).

Type in all cases: cell-based
The subject of one experiment is A2780 (ovarian) cells. The experiment is described as follows: Anti-proliferative activity, Cell-Titre luminescent viability assay. Conditions: Homo sapiens, 72 h exposure, Cell-Titre luminescent reagent. An outline of the steps: (§1)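 Cells attached 24 h at 37° C., 5% CO2, then treated 72 h with compound at 0.3–100 μM or 0.1–30 μM. Viability read by Cell-Titre luminescence after 30 min reagent exposure, normalized to vehicle; EC50 from variable-slope sigmoidal nonlinear regression.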

Experiment [1] deals with MIA PaCa-2 (pancreatic) cells. Described as above. Conditions: Homo sapiens, 72 h exposure, Cell-Titre luminescent reagent. An outline of the steps:
as §1

A further experiment deals with PC3 (prostate) cells. The experiment is described as above. The following applies: 72 h exposure, Cell-Titre luminescent reagent. Put shortly:
as §1

A further experiment has as its system A549 (NSCLC) cells. The experiment is described as above. Conditions: Homo sapiens, 72 h exposure, Cell-Titre luminescent reagent. An outline of the steps: as §1
Experiment [2] relates to Caco-2 (colorectal) cells. Described as above. The following applies: Homo sapiens, 72 h exposure, Cell-Titre luminescent reagent. An outline of the steps:
as §1

Experiment [3] deals with A2780 ovarian cancer cells. In words: Drug combination screen, 6x6 dose matrix, Bliss-independence synergy. Also noted: key to Max. Synergy, Vinorelbine: Bliss synergy score; 0 = no synergy, negative = antagonism; highest in matrix; key to Total Synergy, Vinorelbine: sum of Bliss synergy scores across the dose matrix. Conditions: 72 h (26*: 96-well plate format). The method, then:
(§2) In vitro growth inhibition assays were performed as technical triplicate in two independent experiments and cell viability was assessed by Alamar Blue assay readout. Briefly, cells in logarithmic phase growth were seeded in 384-well plates in a 50 μL/well assay volume. Cells were seeded at 1,200 cells/well using a Multidrop 384 (Thermo Scientific) and allowed to adhere at 37° C. with 5% CO2, in a humidified atmosphere (LiCONIC incubator). After 24 hours incubation, test compounds, positive control (20 μM Thonzonium bromide, 100% kill) and vehicle only (0.4% DMSO) were added into wells of each assay plate using a Tecan HP D300 Digital Dispenser in technical triplicate under minimum light. Following 72 hours drug exposure, metabolic activity was detected by addition of 10% (v/v) Alamar Blue reagent to each assay well using a Multidrop Cambi (Thermo Scientific) and determined by measurement of fluorescence intensity (excitation 555 nm, emission 585 nm) using an EnSpire (Perkin Elmer) plate reader. Readings were performed at 0 hour (background) and after 6 hours alamar blue incubation at 37° C.
The two drugs in each combination matrix were dispensed using a Tecan HP D300 Digital Dispenser. Assays were performed in triplicate for each drug combination (test compound/vinorelbine and test compound/paclitaxel combinations). Synergistic drug interactions were calculated from the averaged cell viability data using the methodology described below.
Synergistic drug interactions were determined for each pa1rw1se drug combination by applying the Bliss-independence model that assumes independence of drug mechanisms. Prior to the analysis, percent cell viability (CV) for combination data were converted to fractional cell growth inhibition (GI) by the formula: […]
The Bliss additivism model was used to calculate a predicted combined response C to two single agents with responses A and B (using GI values), as follows:
The final score for any combination was reported as the difference between the value predicted by the additive model and the experimentally observed value, normalised to 100. Using GI values the maximum possible synergy score is 100, with 0 indicating no synergy and negative indicating possible antagonism. Scores were also reported as a “Max synergy” score, which is the highest individual synergy score for each combination matrix, and a “Total synergy” score, which was obtained by summation of each individual synergy score for the matrix.
The single agent IC50 values for the test compounds and their synergy scores in combination with vinorelbine and paclitaxel are presented in Table 4. The data is listed as IC50 mean from technical triplicates for two independent experiments. The averaged IC50 concentrations for the single agents from both runs were then used to generate the 6×6 dose matrices in the synergy experiment. Synergy scores for each drug combination were calculated by the Bliss-independence model. The maximum synergy and total synergy scores for each combination in A2780 cells are listed.

For experiment [4], the system named is A2780 ovarian cancer cells. In words: In vitro growth inhibition assay, Alamar Blue, single agent IC50. Conditions: Homo sapiens, 72 h drug exposure, Alamar Blue, 384-well (26*: 96-well plate format), read-out: Single-agent IC50. The method, then:
as §2
Each drug was tested as a 10-point concentration series with two-fold serial dilutions of each drug. The concentration series for compounds 6 and 8 was 100, 50, 25, 12.5, 6.25, 3.125, 1.563, 0.781, 0.391 and 0.195 μM and for compounds 24, 43 and 48 was 50, 25, 12.5, 6.25, 3.125, 1.563, 0.781, 0.391, 0.195 and 0.098 μM for the two independent experiments. The concentration series for vinorelbine and paclitaxel was 100, 50, 25, 12.5, 6.25, 3.125, 1.5625, 0.781, 0.391 and 0.195 nM. Thonzonium bromide (20 μM) and 0.4% DMSO were used as positive and vehicle controls, respectively. The IC50 value was calculated by derivation of the best-fit line using a sigmoidal dose response model (Activity Base Software Suite, IDES).
Activity Base software suite (IDES, version 8.3.0.175) was used for data analysis. Cell survival is expressed as a percentage of viable cells. IC50 concentrations were calculated by derivation of the best-fit line using a sigmoidal dose response model with technical triplicate data points.

As for `O=C(Nc1ccc(C(F)(F)F)cc1)c1ccn(S(=O)(=O)c2ccc3[nH]ccc3c2)c1` [Compound 26, 1-((1H-indol-5-yl)sulfonyl)-N-(4-(trifluoromethyl)phenyl)-1H-pyrrole-3-carboxamide], the IC50 came out at 4.9 µM in the experiment on A2780 (ovarian) cells; 10.1 µM in experiment [1]; 7.7 µM in the experiment on PC3 (prostate) cells; 6.8 µM with A549 (NSCLC) cells; 6.1 µM in experiment [2]; 12.5 µM in experiment [4]. Moreover, the “Max. Synergy, Paclitaxel” value in experiment [3] (combination with paclitaxel, Bliss score) was 7.83. For the same molecule, the “Total Synergy, Paclitaxel” value in experiment [3] (combination with paclitaxel, sum of Bliss scores of the matrix) is recorded as 61.23. Moreover, the “Max. Synergy, Vinorelbine” value in experiment [3] (combination with vinorelbine, Bliss score) is given as 10.86. The “Total Synergy, Vinorelbine” value in experiment [3] (combination with vinorelbine, sum of Bliss scores of the matrix) was 60.91.
